Literature values in US6919088B2 (priority 2002, dated 2005).

Experiments:
[1] = system: arachadonic acid in tissue lipids; conditions: rats, dietary triacylglycerols
[2] = system: decorin and procollagen-I; conditions: in vitro testing compared to retinoic acid

For `CCCCCCCCCCC/C=C\CCCCC(=O)O` [petroselinic acid, cis-6-octadecenoic acid], the “levels of arachadonic acid in tissue lipids” value [1] is listed as “reduce the levels of arachadonic acid” and the “upregulating and increasing synthesis of decorin and procollagen-I” value [2] is listed as “more effective than retinoic acid”.
